US20090269770A1, “METHODS FOR EVALUATION PROGNOSIS AND FOLLOW-UP OF DRUG TREATMENT OF PSYCHIATRIC DISEASES OR DISORDERS” (priority 2008, published 2009)
Where “and” joins values, the source holds several entries; their conditions need not be identical. Equal entries are not always repeated.

How the values were obtained:
Format in all cases: in vivo, human
[1] = tested on: schizophrenic patients; test: Simpson-Angus Scale (SAS) for extrapyramidal side effects; conditions: for Extra-pyramidal side effects score: one line per patient I-VI
Description: Fluvoxamine (100 mg/day) was added in an open study format to the antipsychotic treatment, which remained steady. Clinical state was assessed by psychiatrists using validated rating scales for negative (SANS) and positive (SAPS) symptoms (Silver et al., 2003) prior to fluvoxamine treatment and then weekly until the end of the trial period. Total SANS scores and summary scores for […] blunting, alogia, anhedonia and […] factors were the outcome measures. Extrapyramidal symptoms were assessed with the Simpson-Angus Scale (SAS) for extrapyramidal side effects (Simpson and Angus, 1970). Blood samples were taken at baseline (day 0), before addition of fluvoxamine, after 3 weeks of combined treatment, a time when the initial clinical effect is expected to be seen (Silver et al., 2003), and after 6 weeks of the combined treatment.

[2] = tested on: PMC from schizophrenic patients; test: Real-time RT-PCR of GABAAβ2 and PKCβ2 mRNAs in PMC (8 patients)
Description: FIGS. 2A-2B show real-time RT-PCR analysis of GABAAβ2 (2A) and PKCβ2 (2B) mRNAs in PMCs from schizophrenic patients treated with an antipsychotic drug combined with the antidepressant agent fluvoxamine. Fluvoxamine (100 mg/day) was added in an open study format to the constant antipsychotic treatment of 8 patients suffering from chronic schizophrenia with persistent negative symptoms. Total RNA, isolated from PMCs of these patients at baseline (day 0, BL) as well as following 1, 3 and 6 weeks (1W, 3W and 6W, respectively) of the combined treatment, was reverse transcribed. cDNA was amplified in real-time PCR using suitable primers for GABAAβ2 and PKCβ2, as described in the Experimental section. The relative expression level of a given mRNA was assessed by normalizing to the reference gene PPIB. For each patient, the expression level of each one of the genes at baseline was arbitrarily set as 1, and the gene expression levels at 3 and 6 weeks were calculated relative to baseline. Lines connecting points indicate samples of the same patient. Dash line indicates average of the samples of different objects. Student's t-test *p<0.05; **p<0.01 for 1, 3 or 6 weeks of fluvoxamine add-on compared with baseline.
Two μg of total RNA were denatured and reverse transcribed using random hexanucleotides (0.5 μg/μl) as previously described (Chertkow et al., 2006). Real-time quantitative assessment was performed using LightCycler with FastStart DNA Master SYBR Green I ready-to use PCR mix kits according to the manufacture's protocol (Roche Diagnostics, Mannheim, Germany). Forty ng cDNA was amplified per sample. Each experimental set included one reaction with water as template to control for cross contamination. […] The results were analyzed in real-time on the provided program of the LightCycler and normalized against a reference gene in order to correct sample-to-sample variation. […] Expression stability of these genes was determined in our samples with ‘Normfinder’ Excel applet (Andersen et al., 2004); PPIB was chosen as the reference gene for normalization. […]

[3] = tested on: PMC from schizophrenic patients; test: Real-time RT-PCR of IL8Rα, CCR1, CCR7, RGS7 mRNAs in PMC (6 patients)
Description: FIGS. 1A-1D show real-time RT-PCR analysis of CCR1 (1A), CCR7 (1B), IL8Ra (1C) and RGS7 (1D) mRNAs in PMCs from schizophrenic patients treated with an antipsychotic drug combined with the antidepressant agent fluvoxamine. Fluvoxamine (100 mg/day) was added in an open study format to the constant antipsychotic treatment of 6 patients suffering from chronic schizophrenia with persistent negative symptoms. Total RNA, isolated from PMCs of these patients at baseline (day 0, BL) as well as following 3 and 6 weeks (3W and 6W, respectively) of the combined treatment, was reverse transcribed. cDNA was amplified in real-time PCR using suitable primers for CCR1, CCR7, IL8Ra and RGS7, as described in the Experimental section hereinafter. The relative expression level of a given mRNA was assessed by normalizing to the reference gene peptidylprolyl isomerase B (cyclophilin B, PPIB). For each patient, the expression level of each one of the genes at baseline was arbitrarily set as 1, and the gene expression levels at 3 and 6 weeks were calculated relative to baseline. Lines connecting points indicate samples of the same patient. Horizontal lines indicate group means. Student's t-test *p<0.05; **p<0.01 for 3 or 6 weeks of fluvoxamine add-on compared with baseline.
Two μg of total RNA were denatured and reverse transcribed using random hexanucleotides (0.5 μg/μl) as previously described (Chertkow et al., 2006). Real-time quantitative assessment was performed using LightCycler with FastStart DNA Master SYBR Green I ready-to use PCR mix kits according to the manufacture's protocol (Roche Diagnostics, Mannheim, Germany). Forty ng cDNA was amplified per sample. Each experimental set included one reaction with water as template to control for cross contamination. Amplified products were visualized on 1.5% agarose gel. The sequences of the primers, the experimental conditions and the melting temperature of the products are described in Table 2 hereinafter. The results were analyzed in real-time on the provided program of the LightCycler and normalized against a reference gene in order to correct sample-to-sample variation. […] Expression stability of these genes was determined in our samples with ‘Normfinder’ Excel applet (Andersen et al., 2004); PPIB was chosen as the reference gene for normalization. […]
The biochemical data were analyzed by one way analysis of variance (ANOVA) followed by Dunnett's test. […] Clinical response was assessed with repeated measure ANOVA.
In this study, the significant gene expression changes in the PMC of schizophrenic patients, observed in the customized array and shown in Example 1, were verified by real-time RT-PCR. […] The expression level of each candidate was assessed in all samples.

[4] = after 3-6 weeks of the combined treatment

## COCCCC/C(=N\OCCN)c1ccc(C(F)(F)F)cc1 [fluvoxamine]
[1]; 3 W
  Extra-pyramidal side effects score: 0 (5×) and 6
[1]; 6 W
  Extra-pyramidal side effects score: 0 (5×) and 4
[1]; with augmentation treatment, absent in all, except one patient
  Extra pyramidal side effects change: did not change significantly
[2]; [4]
  average GABAAβ2 expression increase compared with day 0: 40-50%
  average PKCβ2 expression decrease compared with day 0: ≥ 90%
[2]; after one week of the combined treatment
  average PKCβ2 expression decrease compared with day 0: about 30%
[3]; 3 and 6 weeks, among the patients
  CCR7 mRNA expression: did not show a consistent trend
[3]; after 3 and 6 weeks of add-on treatment vs initial level, normalized to PPIB
  IL8Rα mRNA expression: reduced significantly
[3]; after 6 weeks
  RGS7 mRNA expression: significantly reduced
[3]; at both time points (3 and 6 weeks), in 5 out of 6 patients
  CCR1 mRNA expression: reduced
